# Test results from patent US20220117890A1, “CANNABINOID EMULSIONS” (CORN PRODUCTS DEVELOPMENT, INC., priority 2020, published 2022).
# What was measured:
# [1] = Plasma pharmacokinetics of CBD after single IV or oral administration; type: in vivo, male Sprague-Dawley rats; settings: male, Sprague-Dawley, IV 2 mg/kg, rat
# Source text: Plasma pharmacokinetics following single intravenous cannabidiol (CBD solid) or oral administration (4 emulsions+1 non-emulsified oil) was investigated in male Sprague-Dawley rats. Rats were used for this study because they are an accepted model for characterization of pharmacokinetics of formulations being developed for humans. Twelve (12) single-catheterized rats (275-300 g, jugular vein catheter) were obtained from Envigo and divided into 6 groups of 2 animals each. Rats were acclimated for 5 days; the temperature was controlled from 68-79° F., the humidity was controlled from 20% to 70% and the light source was fluorescent lamps with a light/dark cycle of 12/12 hours on/off. No concurrent medication was administered during the study, and all rats had access (ad-libitum) to Tekland Rodent Chow 2018 (Envigo) and tap water throughout the live phase. All animals were randomly placed. Post acclimation, all animals received a single IV (tail vein injection) or oral treatment of one of the nanoemulsions, a non-emulsified oil, or a positive control based on Table 7. Group 1 animals received a single IV injection while Groups 2-6 received a single oral administration. The non-emulsified oil is CBD isolate dissolved in MCT oil. WFI=sterile water for injection. Dosing and dose volume are in […] (body weight) and mL/kg (body weight) respectively.
# The CBD concentration in blood plasma samples obtained at various collection times (15, 30, 60, 120, 180, 240, 480 minutes and 24 hr) was determined.
# The following pharmacokinetic parameters were determined: Bioavailability absolute (Fabs), Bioavailability relative to non-emulsified (Frel), the time at maximum concentration, the maximum concentration, and half-life (T1/2).
# [2] = as above; type: in vivo, male Sprague-Dawley rats; settings: male, Sprague-Dawley, IV 2 mg/kg, rat, read-out: Concentration (CBD in blood plasma)
smiles,measurement,setting,value
"C=C(C)[C@@H]1CCC(C)=C[C@H]1c1c(O)cc(CCCCC)cc1O [CBD solid, cannabidiol]",AUC(0-inf),[1],2010 ng·h/mL
same,AUC(0-t),[1],1980 ng·h/mL
same,Cmax,[1]; read-out: Cmax (maximum concentration),1560 ng/mL
same,Tmax,[1]; read-out: Tmax (time at maximum concentration),15 min
same,concentration at 30 min,"[1]; time 30 min, read-out: Concentration (CBD in blood plasma)",481 ng/mL
same,concentration at 60 min,"[1]; time 60 min, read-out: Concentration (CBD in blood plasma)",341 ng/mL
same,concentration at 120 min,"[1]; time 120 min, read-out: Concentration (CBD in blood plasma)",178 ng/mL
same,concentration at 180 min,"[1]; time 180 min, read-out: Concentration (CBD in blood plasma)",89.2 ng/mL
same,concentration at 240 min,"[1]; time 240 min, read-out: Concentration (CBD in blood plasma)",44.2 ng/mL
same,concentration at 480 min,"[1]; time 480 min, read-out: Concentration (CBD in blood plasma)",10.6 ng/mL
same,concentration at 24 hr,"[1]; time 24 hr, read-out: Concentration (CBD in blood plasma)",5.2 ng/mL
same,concentration at 5 min,[2],1560 ng/mL
